What was measured:
Assay type in all cases: biochemical
SGK kinase = target: T1, SGK kinase (Homo sapiens, UniProt O00141); test: IC50 for SGK kinase (selectivity); settings: for IC50: read-out: IC50-SGK1
T1 sequence (O00141 1-431): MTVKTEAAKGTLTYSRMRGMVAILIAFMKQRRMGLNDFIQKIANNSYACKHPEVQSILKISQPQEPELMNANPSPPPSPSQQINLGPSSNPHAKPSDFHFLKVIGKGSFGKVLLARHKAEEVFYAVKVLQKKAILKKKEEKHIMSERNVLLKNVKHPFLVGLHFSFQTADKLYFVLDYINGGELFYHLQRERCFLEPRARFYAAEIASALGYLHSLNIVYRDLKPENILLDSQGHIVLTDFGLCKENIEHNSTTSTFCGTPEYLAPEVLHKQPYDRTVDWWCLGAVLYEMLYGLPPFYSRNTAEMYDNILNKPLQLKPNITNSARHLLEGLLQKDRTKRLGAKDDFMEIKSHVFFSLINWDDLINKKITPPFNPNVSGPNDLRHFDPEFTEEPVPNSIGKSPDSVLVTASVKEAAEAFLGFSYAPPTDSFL
Protocol: Entries identified with “1” had values above 250 nM; entries identified with “2” had values above 1 μM; entries identified with “3” had values above 10 μM.

PKCθ = target: T2, PKCθ (Homo sapiens, UniProt Q04759); test: Ki Pan Vera (PV) potency for PKCθ; settings: Ki Pan Vera (PV) of PKCθ
T2 construct: purchased Pan Vera
Protocol: (§1) For Ki Pan Vera (PV) of PKCθ, entries identified with “A” had values below 100 nM; entries identified with “B” had values below 1 μM; and entries identified with “C” had values below 10 μM.

PKC delta = target: T3, PKC delta (Homo sapiens, UniProt Q05655); test: Ki Pan Vera (PV) potency for PKC delta; settings: Ki Pan Vera (PV) of PKC delta
T3 construct: purchased Pan Vera
Protocol: [The source words this procedure for another target and reports this target under the same test.] as §1

PKC alpha = target: T4, PKC alpha (Homo sapiens, UniProt P17252); test: Ki Pan Vera (PV) potency for PKC alpha; settings: Ki Pan Vera (PV) of PKC alpha
T4 construct: purchased Pan Vera
Protocol: [The source words this procedure for another target and reports this target under the same test.] as §1

T2 sequence (Q04759 whole entry): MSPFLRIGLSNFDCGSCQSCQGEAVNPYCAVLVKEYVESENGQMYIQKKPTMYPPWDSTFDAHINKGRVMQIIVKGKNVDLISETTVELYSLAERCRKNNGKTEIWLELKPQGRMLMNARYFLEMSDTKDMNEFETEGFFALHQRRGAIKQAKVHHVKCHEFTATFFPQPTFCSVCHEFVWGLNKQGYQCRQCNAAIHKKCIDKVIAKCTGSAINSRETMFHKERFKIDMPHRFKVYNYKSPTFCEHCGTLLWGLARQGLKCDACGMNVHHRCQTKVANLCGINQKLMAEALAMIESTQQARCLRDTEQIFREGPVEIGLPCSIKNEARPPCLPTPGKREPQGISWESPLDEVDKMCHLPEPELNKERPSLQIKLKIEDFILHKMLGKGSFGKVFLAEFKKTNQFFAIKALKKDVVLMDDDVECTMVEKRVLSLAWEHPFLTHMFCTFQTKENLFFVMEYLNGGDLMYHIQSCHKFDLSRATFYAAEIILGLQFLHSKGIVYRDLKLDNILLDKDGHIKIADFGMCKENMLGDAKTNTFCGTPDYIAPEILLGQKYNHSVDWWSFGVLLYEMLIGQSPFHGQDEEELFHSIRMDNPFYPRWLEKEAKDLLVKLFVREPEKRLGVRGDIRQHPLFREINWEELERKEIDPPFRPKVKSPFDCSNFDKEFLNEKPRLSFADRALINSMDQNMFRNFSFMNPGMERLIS
T3 sequence (Q05655 whole entry): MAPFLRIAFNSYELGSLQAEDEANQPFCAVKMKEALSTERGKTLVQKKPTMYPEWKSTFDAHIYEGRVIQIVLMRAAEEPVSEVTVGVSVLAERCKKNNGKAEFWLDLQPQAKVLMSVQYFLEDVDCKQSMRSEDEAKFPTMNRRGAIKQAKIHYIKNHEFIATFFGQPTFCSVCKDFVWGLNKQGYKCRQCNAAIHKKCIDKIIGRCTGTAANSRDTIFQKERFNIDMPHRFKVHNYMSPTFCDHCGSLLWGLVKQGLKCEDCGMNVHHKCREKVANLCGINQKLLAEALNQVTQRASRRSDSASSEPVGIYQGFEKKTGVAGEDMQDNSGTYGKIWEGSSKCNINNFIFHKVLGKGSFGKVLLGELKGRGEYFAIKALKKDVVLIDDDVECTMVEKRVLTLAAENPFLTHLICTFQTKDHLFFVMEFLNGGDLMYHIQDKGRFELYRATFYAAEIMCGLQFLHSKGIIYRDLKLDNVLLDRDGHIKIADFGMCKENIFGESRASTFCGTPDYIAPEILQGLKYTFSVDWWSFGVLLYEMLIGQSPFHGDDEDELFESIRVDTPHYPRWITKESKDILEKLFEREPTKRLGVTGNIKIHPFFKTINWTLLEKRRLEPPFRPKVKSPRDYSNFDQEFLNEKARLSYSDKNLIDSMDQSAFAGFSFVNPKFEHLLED

Compound | IC50 (SGK kinase) | Ki (PKCθ) | Ki (PKC delta) | Ki (PKC alpha) | IC50-SGK1 (SGK kinase)
Fc1ccc(CNc2ncc3nc(-c4c(F)cccc4Cl)n(CC4CCNC4)c3n2)cc1F (stereo not shown) [Compound 223] | > 10 µM | < 1000 nM | > 1000 nM | > 1000 nM | 
Fc1ccc(F)c(CNc2ncc3nc(-c4c(Cl)cccc4Cl)n(C[C@@H]4CCCNC4)c3n2)c1 [Compound 104] | > 10 µM | < 100 nM | > 250 nM | > 1000 nM | 
Fc1cccc(Cl)c1-c1nc2cnc(NCc3cc(Cl)cc(Cl)c3)nc2n1C[C@@H]1CCCNC1 [Compound 200] |  | < 10000 nM | > 1000 nM | > 10000 nM | Inactive
Fc1ccc(CNc2ncc3nc(-c4c(Cl)cccc4Cl)n(CC4CCNC4)c3n2)cc1F (stereo not shown) [Compound 142] | > 10 µM | < 1000 nM | > 1000 nM | > 1000 nM | 
Clc1cccc(Cl)c1-c1nc2cnc(NCc3ccccc3)nc2n1CC1CCNC1 (stereo not shown) [Compound 151] | > 10 µM | < 1000 nM | > 1000 nM | > 1000 nM | 
C[C@H](Nc1ncc2nc(-c3c(Cl)cccc3Cl)n(CC3CCNC3)c2n1)c1ccccc1F (stereo partly shown) [Compound 138] |  | < 1000 nM | > 1000 nM | > 1000 nM | Inactive
C[C@H](Nc1ncc2nc(-c3ccccc3Cl)n(C[C@@H]3CCCNC3)c2n1)c1ccccc1F [Compound 217] |  | < 1000 nM | > 10000 nM | > 10000 nM | Inactive
Clc1cccc(Cl)c1-c1nc2cnc(NCc3ccco3)nc2n1CCC1CCNCC1 [Compound 214] | > 10 µM | < 10000 nM | > 1000 nM | > 1000 nM | 
Fc1ccc(CNc2ncc3nc(-c4c(F)cccc4Cl)n(C[C@@H]4CCCNC4)c3n2)c(F)c1 [Compound 144] |  | < 1000 nM | > 1000 nM | > 1000 nM | Inactive
Fc1ccc(CNc2ncc3nc(-c4c(F)cccc4Cl)n(C[C@@H]4CCCNC4)c3n2)cc1Cl [Compound 108] |  | < 1000 nM | > 1000 nM | > 1000 nM | Inactive
Fc1cccc(CNc2ncc3nc(-c4c(Cl)cccc4Cl)n(C[C@H]4CCNC4)c3n2)c1 [Compound 127] |  | < 1000 nM | > 1000 nM | > 1000 nM | Inactive
Fc1ccccc1CNc1ncc2nc(-c3c(F)cccc3Cl)n(CC3CCCNC3)c2n1 (stereo not shown) [Compound 160] |  | < 1000 nM | > 1000 nM | > 1000 nM | Inactive
Clc1cccc(Cl)c1-c1nc2cnc(NCc3ccccc3)nc2n1CCC1CCNCC1 [Compound 141] | > 1 µM | < 1000 nM | > 10000 nM | > 10000 nM | 
Fc1ccccc1CNc1ncc2nc(-c3c(Cl)cccc3Cl)n(C[C@H]3CCNC3)c2n1 [Compound 153] | > 1 µM | < 1000 nM | > 1000 nM | > 1000 nM | 
Clc1cccc(Cl)c1-c1nc2cnc(NCc3cccs3)nc2n1C[C@H]1CCNC1 [Compound 170] |  | < 1000 nM | > 1000 nM | > 1000 nM | Inactive
Fc1ccc(F)c(CNc2ncc3nc(-c4c(Cl)cccc4Cl)n(C[C@H]4CCNC4)c3n2)c1 [Compound 125] |  | < 1000 nM | > 1000 nM | > 1000 nM | Inactive
Fc1ccccc1CNc1ncc2nc(-c3c(Cl)cccc3Cl)n(C[C@@H]3CCCNC3)c2n1 [Compound 110] | > 1 µM | < 100 nM | > 1000 nM | > 1000 nM | 
Fc1ccc(CNc2ncc3nc(-c4c(Cl)cccc4Cl)n(CCC4CCNCC4)c3n2)cc1F [Compound 118] | > 10 µM | < 1000 nM | > 1000 nM | > 1000 nM | 
Fc1ccc(CNc2ncc3nc(-c4c(F)cccc4Cl)n(C[C@H]4CCNC4)c3n2)cc1F [Compound 174] |  | < 1000 nM | > 1000 nM | > 1000 nM | Inactive
NCCN1CCC(n2c(-c3c(Cl)cccc3Cl)nc3cnc(NCc4ccccc4F)nc32)CC1 [Compound 143] |  | < 1000 nM | > 1000 nM | > 1000 nM | Inactive
Fc1ccccc1CNc1ncc2nc(-c3c(Cl)cccc3Cl)n(CC3CCCNC3)c2n1 (stereo not shown) [Compound 117] |  | < 1000 nM | > 1000 nM | > 1000 nM | Inactive
Clc1cccc(CNc2ncc3nc(-c4c(Cl)cccc4Cl)n(C[C@H]4CCNC4)c3n2)c1 [Compound 135] |  | < 1000 nM | > 1000 nM | > 1000 nM | Inactive

Compound | IC50 (SGK kinase) | Ki (PKCθ) | Ki (PKC delta) | Ki (PKC alpha) | IC50-SGK1 (SGK kinase)
Fc1cc(F)cc(CNc2ncc3nc(-c4c(Cl)cccc4Cl)n(CCC4CCNCC4)c3n2)c1 [Compound 146] |  | < 1000 nM | > 1000 nM | > 1000 nM | Inactive
C[C@H](Nc1ncc2nc(-c3c(Cl)cccc3Cl)n(CC3CCNC3)c2n1)c1ccccc1F (stereo partly shown) [Compound 166] | > 10 µM | < 1000 nM | > 1000 nM | > 1000 nM | 
Fc1ccc(Cl)cc1CNc1ncc2nc(-c3c(F)cccc3Cl)n(C[C@@H]3CCCNC3)c2n1 [Compound 115] | > 10 µM | < 1000 nM | > 1000 nM | > 10000 nM | 
Clc1ccc(CNc2ncc3nc(-c4c(Cl)cccc4Cl)n(CC4CCNC4)c3n2)cc1Cl (stereo not shown) [Compound 206] | > 10 µM | < 10000 nM | > 1000 nM | > 10000 nM | 
Fc1ccc(CNc2ncc3c(n2)C(C[C@H]2CCNC2)C(c2c(Cl)cccc2Cl)=N3)cc1 (stereo partly shown) [Compound 130] |  | < 1000 nM | > 1000 nM | > 1000 nM | Inactive
NCCCCCCn1c(-c2ccccc2Cl)nc2cnc(NCc3ccccc3F)nc21 [Compound 207] |  | < 10000 nM | > 1000 nM | > 10000 nM | Inactive
Fc1cccc(CNc2ncc3nc(-c4c(F)cccc4Cl)n(C[C@H]4CCNC4)c3n2)c1 [Compound 205] |  | < 1000 nM | > 1000 nM | > 1000 nM | Inactive
Clc1cc(Cl)cc(CNc2ncc3nc(-c4c(Cl)cccc4Cl)n(C[C@@H]4CCCNC4)c3n2)c1 [Compound 134] |  | < 10000 nM | > 1000 nM | > 10000 nM | Inactive
Fc1ccc(CNc2ncc3nc(-c4c(Cl)cccc4Cl)n(CCC4CCNCC4)c3n2)c(F)c1 [Compound 148] | > 10 µM | < 1000 nM | > 1000 nM | > 1000 nM | 
Fc1ccc(CNc2ncc3nc(-c4c(Cl)cccc4Cl)n(CCC4CCNCC4)c3n2)cc1 [Compound 163] |  | < 1000 nM | > 1000 nM | > 1000 nM | Inactive
Fc1ccc(CNc2ncc3nc(-c4ccccc4Cl)n(C[C@@H]4CCCNC4)c3n2)cc1F [Compound 136] |  | < 1000 nM | > 1000 nM | > 1000 nM | Inactive
Fc1ccc(F)c(CNc2ncc3nc(-c4c(F)cccc4Cl)n(C[C@H]4CCNC4)c3n2)c1 [Compound 209] |  | < 1000 nM | > 1000 nM | > 1000 nM | Inactive
Fc1ccc(CNc2ncc3c(n2)C(C[C@@H]2CCCNC2)C(c2c(F)cccc2Cl)=N3)cc1 (stereo partly shown) [Compound 128] |  | < 1000 nM | > 1000 nM | > 1000 nM | Inactive
CC(Nc1ncc2nc(-c3c(Cl)cccc3Cl)n(CCC3CCNCC3)c2n1)c1ccccc1 (stereo not shown) [Compound 212] |  | < 10000 nM | > 10000 nM | > 10000 nM | Inactive
Fc1cccc(CNc2ncc3nc(-c4c(Cl)cccc4Cl)n(CC4CCNC4)c3n2)c1 (stereo not shown) [Compound 147] |  | < 1000 nM | > 1000 nM | > 1000 nM | Inactive
Clc1ccc(CNc2ncc3nc(-c4c(Cl)cccc4Cl)n(CCC4CCNCC4)c3n2)cc1 [Compound 173] | > 10 µM | < 10000 nM | > 1000 nM | > 1000 nM | 
Fc1ccccc1CNc1ncc2nc(-c3c(F)cccc3Cl)n(C[C@H]3CCCNC3)c2n1 [Compound 156] | > 1 µM | < 1000 nM | > 1000 nM | > 10000 nM | 
Clc1cccc(Cl)c1-c1nc2cnc(NCc3ccccc3)nc2n1C[C@H]1CCNC1 [Compound 133] |  | < 1000 nM | > 1000 nM | > 1000 nM | Inactive
NCCCCCCn1c(-c2c(Cl)cccc2Cl)nc2cnc(NCc3ccccc3F)nc21 [Compound 122] |  | < 1000 nM | > 1000 nM | > 10000 nM | Inactive
Fc1ccc(CNc2ncc3nc(-c4c(Cl)cccc4Cl)n(CC4CCNC4)c3n2)c(F)c1 (stereo not shown) [Compound 172] |  | < 1000 nM | > 1000 nM | > 1000 nM | Inactive
Fc1ccc(Cl)cc1CNc1ncc2nc(-c3c(Cl)cccc3Cl)n(C[C@@H]3CCCNC3)c2n1 [Compound 102] | > 10 µM | < 100 nM | > 1000 nM | > 1000 nM | 

From patent US20110046131A1, “PURINES AS PKC-THETA INHIBITORS” (N.V. Organon and Pharmacopeia, LLC, priority 2006, published 2011)
